Legend:
[1] = system: Plasmodium falciparum; assay: Antiplasmodial activity against drug-sensitive Plasmodium falciparum 3D7 at ring stage infected in A+ erythrocytes assessed as parasite growth reduction incubated for 72 hrs by SYBR Green I dye based analysis; type: functional, organism-based; settings: 3D7, Erythrocyte
[2] = Selectivity index, ratio of EC50 for human MCF7 cells to EC50 for multidrug-resistant Plasmodium falciparum Dd2 at ring stage infected in A+ erythrocytes; type: toxicity, cell-based; settings: read-out: Ratio EC50
[3] = system: MCF7; assay: Cytotoxicity against human MCF7 cells assessed as reduction in cell viability incubated for 48 hrs by MTS assay; type: toxicity, cell-based; settings: mcf7
[4] = system: Plasmodium falciparum; assay: Resistance index, ratio of EC50 for multidrug-resistant Plasmodium falciparum Dd2 at ring stage infected in A+ erythrocytes to EC50 for drug-sensitive Plasmodium falciparum 3D7 at ring stage infected in A+ erythrocytes; type: organism-based; settings: human
[5] = system: Plasmodium falciparum; assay: Antiplasmodial activity against multidrug-resistant Plasmodium falciparum Dd2 at ring stage infected in A+ erythrocytes assessed as parasite growth reduction incubated for 72 hrs by SYBR Green I dye based analysis; type: functional, organism-based; settings: Dd2, Erythrocyte
[6] = system: HepG2; assay: Cytotoxicity against human HepG2 cells assessed as reduction in cell viability incubated for 48 hrs by MTS assay; type: toxicity, cell-based; settings: hepg2
[7] = Selectivity index, ratio of EC50 for human HepG2 cells to EC50 for multidrug-resistant Plasmodium falciparum Dd2 at ring stage infected in A+ erythrocytes; type: toxicity, cell-based; settings: read-out: Ratio EC50
[8] = Metabolic stability in mouse liver microsomes assessed as half life; type: ADME, Liver cells
[9] = Metabolic stability in mouse liver microsomes assessed as intrinsic clearance; type: ADME, Liver cells

Row | SMILES | EC50 [1] [µM] | selectivity ratio [2] | EC50 [3] [µM] | Ratio EC50 [4] | EC50 [5] [µM] | EC50 [6] [µM] | selectivity ratio [7] | t1/2 [8] [min] | intrinsic clearance [9] [µL/min/mg]
1 | CCN1CCN(Cc2ccc(NC(=O)c3cc(Cl)cc(NC(=O)c4cncc(C#N)c4)c3)cc2C(F)(F)F)CC1 | 0.186 | 40 | 7.58 | 1 | 0.191 | 11 | 58 | – | –
2 | CCN1CCN(Cc2ccc(NC(=O)c3cc(Cl)cc(NC(=O)c4cccc(-c5cccs5)c4)c3)cc2C(F)(F)F)CC1 | 0.196 | 33 | 8.36 | 1.3 | 0.253 | 5.46 | 22 | – | –
3 | CCN1CCN(Cc2ccc(NC(=O)c3cc(Cl)cc(NC(=O)c4cccnc4)c3)cc2C(F)(F)F)CC1 | 0.127 | 75 | 11 | 1.2 | 0.147 | 10.4 | 71 | 15.1 | 46
4 | CCN1CCN(Cc2ccc(NC(=O)c3cc(Br)cc(NC(=O)c4cncc(-c5cccs5)c4)c3)cc2C(F)(F)F)CC1 | 0.039 | 108 | 6.59 | 1.6 | 0.061 | 4.38 | 72 | 40.7 | 17
5 | CCN1CCN(Cc2ccc(NC(=O)c3cc(Cl)cc(NC(=O)c4cncc(-c5cccs5)c4)c3)cc2)CC1 | 0.076 | 127 | 10.3 | 1.1 | 0.081 | 8.77 | 108 | 65.3 | 11
6 | CCN1CCN(Cc2ccc(NC(=O)c3cc(Cl)cc(Nc4cncc(-c5cccs5)c4)c3)cc2C(F)(F)F)CC1 | 0.253 | 19 | 5.53 | 1.2 | 0.296 | 3.62 | 12 | – | –
7 | CCN1CCN(Cc2ccc(NC(=O)c3ccc(F)c(NC(=O)c4cncc(-c5cccs5)c4)c3)cc2C(F)(F)F)CC1 | 0.763 | 3.9 | 5.1 | 1.7 | 1.32 | 3.17 | 2.4 | – | –
8 | CCN1CCN(Cc2ccc(NC(=O)c3cc(Cl)cc(NC(=O)c4cnc(N)nc4)c3)cc2C(F)(F)F)CC1 | 0.378 | 19 | 13.7 | 1.9 | 0.709 | 19.2 | 27 | – | –
9 | CCN1CCN(Cc2ccc(NC(=O)c3cc(Cl)cc(NCc4cncc(-c5cccs5)c4)c3)cc2C(F)(F)F)CC1 | 0.31 | 24 | 8.33 | 1.1 | 0.344 | 5.59 | 16 | – | –
10 | CCN1CCN(Cc2ccc(NC(=O)c3cc(Cl)cc(NC(=O)c4cncnc4)c3)cc2C(F)(F)F)CC1 | 0.395 | 29 | 15.3 | 1.3 | 0.52 | 17.3 | 33 | – | –
11 | CCN1CCN(Cc2ccc(NC(=O)c3cc(F)cc(NC(=O)c4cncc(-c5cccs5)c4)c3)cc2C(F)(F)F)CC1 | 0.113 | 76 | 10.2 | 1.2 | 0.135 | 6.69 | 50 | 32.4 | 21
12 | CCN1CCN(Cc2ccc(C(=O)Nc3cc(Cl)cc(NC(=O)c4cncc(-c5cccs5)c4)c3)cc2C(F)(F)F)CC1 | 0.073 | 68 | 7.03 | 1.4 | 0.104 | 9.16 | 88 | – | –
13 | CCN1CCN(Cc2ccc(NC(=O)c3cc(Cl)cc(C(=O)Nc4cncc(-c5cccs5)c4)c3)cc2C(F)(F)F)CC1 | 0.082 | 49 | 5.36 | 1.3 | 0.109 | 4.24 | 39 | – | –
14 | CCN1CCN(Cc2ccc(NC(=O)c3cc(Cl)cc(NC(=O)c4ccccc4)c3)cc2C(F)(F)F)CC1 | 0.361 | 12 | 6.07 | 1.4 | 0.493 | 7.24 | 15 | – | –
15 | O=C(Nc1cccc(C(F)(F)F)c1)c1cc(Cl)cc(NC(=O)c2cncc(-c3cccs3)c2)c1 | 0.541 | > 18 | > 20 | 2.1 | 1.11 | > 20 | > 18 | – | –
16 | CCN1CCN(Cc2ccc(NC(=O)c3cncc(NC(=O)c4cncc(-c5cccs5)c4)c3)cc2C(F)(F)F)CC1 | 0.07 | 62 | 4.71 | 1.1 | 0.076 | 2.55 | 34 | 19.1 | 36
17 | CCN1CCN(Cc2ccc(NC(=O)c3ccc(OC)c(NC(=O)c4cncc(-c5cccs5)c4)c3)cc2C(F)(F)F)CC1 | 0.821 | 3.3 | 5.06 | 1.9 | 1.54 | 3.24 | 2.1 | – | –
18 | CCN1CCN(Cc2ccc(NC(=O)c3ccnc(NC(=O)c4cncc(-c5cccs5)c4)c3)cc2C(F)(F)F)CC1 | 0.356 | 8 | 4.61 | 1.6 | 0.579 | 3.03 | 5.2 | – | –
19 | CCN1CCN(Cc2ccc(NC(=O)c3cc(NC(=O)c4cncc(-c5cccs5)c4)cc(C(F)(F)F)c3)cc2C(F)(F)F)CC1 | 0.035 | 114 | 3.54 | 0.9 | 0.031 | 2.85 | 92 | 41.4 | 17
20 | O=C(Nc1ccnc(N2CCOCC2)c1)c1cc(Cl)cc(NC(=O)c2cncc(-c3cccs3)c2)c1 | 0.7 | 20 | 14.7 | 1.1 | 0.739 | > 20 | > 27 | – | –
21 | CCN1CCN(Cc2ccc(NC(=O)c3cc(Cl)cc(NC(=O)N4CCN(C)CC4)c3)cc2C(F)(F)F)CC1 | 2.12 | 15 | 18.8 | 0.6 | 1.23 | 14 | 11 | – | –
22 | CCN1CCN(Cc2ccc(NC(=O)c3cc(NC(=O)c4cncc(-c5cccs5)c4)c(C)cc3F)cc2C(F)(F)F)CC1 | 1.46 | 4.4 | 6.91 | 1.1 | 1.58 | 4.05 | 2.6 | – | –
23 | CCN1CCN(Cc2ccc(NC(=O)c3cc(NC(=O)c4cncc(-c5cccs5)c4)ccc3F)cc2C(F)(F)F)CC1 | 0.491 | 11 | 10.8 | 2 | 0.981 | 6.71 | 6.8 | – | –

Reference: ChEMBL document CHEMBL5537177, “Discovery of Potent Antimalarial Type II Kinase Inhibitors with Selectivity over Human Kinases” (J Med Chem, 2024)
